This is an account of results in ChEMBL document CHEMBL1201862, “PubChem BioAssay data set” (2004).

Experiment in all cases: NCI tumour cell line growth inhibition, 48 h
The subject of test [1] is CCRF-CEM.
For test [2], the system named is LXFL 529.
Test [3] deals with DMS-273.
For test [4], the system named is SW-620.
The test system of test [5] is NCI/ADR-RES.
Test [6] deals with KM12.
The subject of test [7] is MCF7.
In test [8] the test system is HOP-92.
The subject of test [9] is UACC-257.
The subject of test [10] is OVCAR-5.
Test [11] deals with SNB-75.
The subject of test [12] is SR.
Test [13] has as its system MDA-MB-231.
Test [14] relates to MDA-N.
Test [15] relates to T47D.
The subject of test [16] is BT-549.
The subject of test [17] is MDA-MB-435.
Test [18] deals with DU-145.
Test [19] concerns Hs-578T.
Test [20] concerns PC-3.

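Tested at 5 concentrations; 48 h exposure; 96-well plates; endpoints linearly interpolated, else capped at highest concentration. Here, GI50 denotes the concentration required for 50% inhibition of growth.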 The source made the active and inactive calls. No stated cut-off is given here; in the data, active = GI50 up to about 1.1 µM and inactive = higher.

Regarding `COc1ccc(/C(Cl)=C(\CN(C)C)c2ccc(OC)c(OC)c2)cc1OC`, the GI50 in test [1], in test [2], in test [3] and in test [4] was > 100 µM (inactive) each time.

On to `CCCC[S+]([O-])CC(CO)NC(=O)/C=C/c1c(C)[nH]c(=O)[nH]c1=O` (stereo not given), for which the GI50 in test [5] was 12.4 µM (inactive); in test [6], 5.64 µM (inactive); in test [7] it was 8.67 µM (inactive); in test [1], 6.65 µM (inactive); in test [8], 11.8 µM (inactive); in test [9], 11 µM (inactive). Besides, the GI50 in [3] is 9.75 µM (inactive); in [10], 14.7 µM (inactive); in test [11], 6.85 µM (inactive); in test [4], 16.5 µM (inactive).

As to `O=C(Nc1cccc([N+](=O)[O-])c1)C(=O)C(C(=O)c1ccccc1F)C1OC(=O)C2C=CC=CC21` (stereo not given), the GI50 in test [6] was 27.3 µM (inactive); in [1], 27.3 µM (inactive); in [8] it was > 100 µM (inactive); in [2], 30.5 µM (inactive); in test [9] it was 82 µM (inactive); in [12], 7.06 µM (inactive). Also, the GI50 in test [3] was 31.7 µM (inactive); in test [10], 81.7 µM (inactive); in test [11] it was 28.7 µM (inactive); in test [4] it was 52.1 µM (inactive).

On to `S=c1sc2c(s1)SC(c1ccccc1)CS2` (stereo not given), for which the GI50 is > 52 µM (inactive) in [5]; > 100 µM (inactive) in test [6]; > 100 µM (inactive) in [7]; > 100 µM (inactive) in test [1]; > 64.4 µM (inactive) in test [8]; > 21.7 µM (inactive) in [9]. Moreover, the GI50 in test [3] was > 100 µM (inactive); in test [10], > 100 µM (inactive); in [11] it was > 45 µM (inactive); in test [4] it was > 100 µM (inactive).

For `CCOC(=O)C(O)(NC(=O)c1ccccc1F)C(F)(F)F` (stereo not given), the GI50 is 2.69 µM (inactive) in [13]; > 100 µM (inactive) in test [5]; > 100 µM (inactive) in test [14]; > 100 µM (inactive) in [6]; > 100 µM (inactive) in test [15]; > 100 µM (inactive) in test [16]. Also, the GI50 in [7], in test [17], in test [1], in test [8], in test [18] and in [19] was > 100 µM (inactive) throughout. Further, the GI50 in test [9], in [12], in test [10], in test [11], in test [20] and in [4] was > 100 µM (inactive) throughout.

With `CSc1nc(NC2OCC(OC(C)=O)C(OC(C)=O)C2OC(C)=O)c(/N=C(\C)C(C)=O)c(=O)[nH]1` (stereo not given), the GI50 in test [6], in [1], in [8], in [2], in test [9] and in [12] was > 100 µM (inactive) in each case. In addition, the GI50 in test [3], in test [10], in test [11] and in test [4] was > 100 µM (inactive) in each case.

With `COc1ccc([C@H]2c3cc4c(cc3OC(O)(CO)[C@H]2C(=O)O)OCO4)c(OC)c1.COc1ccc([C@H]2c3cc4c(cc3OC3(O)COC(=O)[C@@H]23)OCO4)c(OC)c1` (stereo not given in full), the GI50 in test [6] was > 100 µM (inactive); in test [1] it was 37.3 µM (inactive); in [8], > 100 µM (inactive); in test [2] it was > 100 µM (inactive); in [9], > 100 µM (inactive); in [12] it was 56 µM (inactive). For the same molecule, the GI50 in [3] was > 100 µM (inactive); in [10], > 100 µM (inactive); in test [11], 43.5 µM (inactive); in test [4], > 100 µM (inactive).

Regarding `COc1ccc2c(C)cc(N/N=C(\C)C=O)nc2c1`, the GI50 in [13] was 9.33 µM (inactive); in test [5], 11.7 µM (inactive); in test [14] it was 10.8 µM (inactive); in test [6] it was 12.3 µM (inactive); in [15], 15.5 µM (inactive); in test [16], 15.1 µM (inactive). Besides, the GI50 is 8.79 µM (inactive) in [7]; 10.8 µM (inactive) in test [17]; 1.82 µM (inactive) in test [1]; 10.5 µM (inactive) in test [8]; 11.7 µM (inactive) in test [18]; 15.5 µM (inactive) in test [19]. The GI50 in test [9] was 15.8 µM (inactive); in test [12] it was 1.64 µM (inactive); in [10], 13 µM (inactive); in [11], 13.6 µM (inactive); in [20], 9.2 µM (inactive); in test [4], 7.57 µM (inactive).

As for `COC(=O)C(C)NP(=O)(N1CC1)N1CC1` (stereo not given), the GI50 is > 100 µM (inactive) in test [6]; 47.6 µM (inactive) in [1]; > 100 µM (inactive) in test [2]; > 100 µM (inactive) in [9]; 91 µM (inactive) in [3]; > 100 µM (inactive) in test [10]. Also, the GI50 in [11] and in [4] was > 100 µM (inactive) in each case.

On to `Cc1ccc(C)c(NC(=O)CCC(=O)CC(=O)C(C)(C)C)c1`, for which the GI50 in test [6], in test [1], in test [8], in test [2], in [9] and in test [3] was > 100 µM (inactive) each time. Besides, the GI50 in [10], in [11] and in test [4] was > 100 µM (inactive) each time.

Consider `O=S(=O)(C1=CC(S(=O)(=O)c2ccccc2)CN(Cc2ccccc2)C1c1cccc2ccccc12)c1ccccc1` (stereo not given), for which the GI50 in test [6] is > 69 µM (inactive); in test [1] it was > 69 µM (inactive); in [8], 6.3 µM (inactive); in test [9], > 69 µM (inactive); in test [3] it was > 69 µM (inactive); in test [10] it was > 69 µM (inactive). The GI50 in [11] and in test [4] was > 69 µM (inactive) throughout.

As for `Sc1nnc(-c2ccnc(-c3nnc(S)[nH]3)c2)[nH]1`, the GI50 in test [6], in test [1], in test [2], in test [9], in [3] and in [10] was > 100 µM (inactive) each time. Also, the GI50 in [4] was > 100 µM (inactive).

Turning to `COc1cc(CCN)c(OC)c(OC)c1`, the GI50 was > 100 µM (inactive) in test [13]; > 100 µM (inactive) in [5]; 39.2 µM (inactive) in test [14]; > 100 µM (inactive) in test [6]; > 100 µM (inactive) in test [15]; > 100 µM (inactive) in test [16]. For the same molecule, the GI50 in test [7] was 42.3 µM (inactive); in test [17], 24.8 µM (inactive); in test [1] it was 34.8 µM (inactive); in [8], 62.4 µM (inactive); in [18], > 100 µM (inactive); in test [19] it was > 100 µM (inactive). For the same molecule, the GI50 in [9] was > 100 µM (inactive); in test [12], 50.8 µM (inactive); in test [10], > 100 µM (inactive); in test [11], > 100 µM (inactive); in test [20], > 100 µM (inactive); in [4], 36.2 µM (inactive).

For `COc1cc(/N=N\c2cccc(S(=O)(=O)O)c2)ccc1/N=N\c1ccc(/C=C/c2ccc(-n3on3-c3ccc(/C=C/c4ccc(/N=N/c5ccc(/N=N\c6cccc(S(=O)(=O)O)c6)cc5OC)cc4S(=O)(=O)O)c(S(=O)(=O)O)c3)cc2S(=O)(=O)O)c(S(=O)(=O)O)c1`, the GI50 in test [5] was > 100 µM (inactive); in test [6] it was > 100 µM (inactive); in test [7] it was > 100 µM (inactive); in test [1] it was > 100 µM (inactive); in test [8] it was > 86.1 µM (inactive); in test [9], > 100 µM (inactive). Further, the GI50 in [3] is > 69.5 µM (inactive); in [10] it was > 100 µM (inactive); in test [11], 91.8 µM (inactive); in test [4], > 100 µM (inactive).

As to `Oc1nc2ccccc2c2oc3ccccc3c12`, the GI50 was 83.8 µM (inactive) in test [13]; > 100 µM (inactive) in [5]; > 100 µM (inactive) in test [14]; > 100 µM (inactive) in test [6]; 16.1 µM (inactive) in test [15]; > 100 µM (inactive) in [16]. In addition, the GI50 in [7] was > 100 µM (inactive); in test [17], > 100 µM (inactive); in test [1] it was > 100 µM (inactive); in test [8], 23.2 µM (inactive); in [18], > 100 µM (inactive); in test [19] it was 37.9 µM (inactive). The GI50 is > 100 µM (inactive) in test [9]; > 100 µM (inactive) in [12]; 6.81 µM (inactive) in [11]; > 100 µM (inactive) in test [20]; > 100 µM (inactive) in test [4].

Turning to `CCC(=C/[C@H](C)C/C=C/C(C)=C/[C@@H](C)C(=O)[C@@H](C)[C@H](O)[C@@H](C)CC)/C=C/[C@H]1CC=CC(=O)O1` [CALLYSTATIN A], the GI50 in [13], in test [5], in [14], in test [6], in test [15] and in test [16] was < 0.0012 µM (active) in each case. The GI50 in test [7] was < 0.0012 µM (active); in test [17], < 0.0012 µM (active); in test [1], < 0.0012 µM (active); in test [8], 0.329 µM (active); in test [18], < 0.0012 µM (active); in [19], < 0.0012 µM (active). Besides, the GI50 in test [9], in test [12], in test [10], in test [11], in [20] and in test [4] was < 0.0012 µM (active) throughout.
